# In US8241607B2, “Use of fructose-based compounds for the diagnosis of cancer” (priority 2005, dated 2012):
# “Also recorded” adds a separate entry of the source.
# Test system: PANC-1 cells
# Test: Inhibition of PANC-1 proliferation by oxythiamine (MTS assay)
# Format: cell-based
# Details: oxythiamine 0.5 mM, 72 h
# Experimental: FIG. 35 depicts inhibition of pancreatic cancer PANC-1 cell proliferation by incubation with the transketolase inhibitor, oxythiamine (0.5-2 mM) for 72 h in accordance with an embodiment of the present invention. Proliferative rates were measured using the MTS proliferation assay.
# The inventors believe that fructose-treatment of pancreatic cancer cells led to an increase in TKK-driven nucleic acid synthesis, and thus fructose-treatment would result in an increase in either PANC-1 TKK expression and/or activity in comparison to equivalent glucose concentrations. Western blot analysis on protein lysates derived from fructose-, and glucose-treated PANC-1 cells were performed (5.5 mM fructose, and glucose for 24, and 48 h as per previous protocol) using a specific TKK antibody, and compared TKK expression in the fructose-, and glucose-treated PANC-1 cells. As depicted in FIG. 33, TKK expression at 24 h, and 48 h in protein lysates derived from 5.5 mM glucose-treated PANC-1 cells was increased in comparison to expression in 2 mM glucose-treated cells. […] After gentle mixing the absorbance of the mixture was measured at 10 min intervals for 2 h at 340 nm. Transketolase activity was then derived from the difference in absorbance at 10, and 80 minutes, and expressed as nmol/min/million cells. […] Pancreatic cancer proliferation rates were then measured using the MTS assay (FIG. 35). […]
smiles,measurement,setting,value
Cc1ncc(C[n+]2csc(CCO)c2C)c(=O)[nH]1 [oxythiamine],effect on fructose-mediated increase in pancreatic cancer cell proliferation,5.5 mM fructose,virtually abolished; also recorded: almost completely abrogate
same,effect on glucose-induced and fructose-induced PANC-1 proliferation,,inhibited glucose-induced and fructose-induced PANC-1 proliferation
